Laboratory results reported in article PMC6217552, “Refining the structure−activity relationships of 2-phenylcyclopropane carboxylic acids as inhibitors of O-acetylserine sulfhydrylase isoforms” (Journal of Enzyme Inhibition and Medicinal Chemistry, 2018).
≈ marks a conversion by molar mass, not a printed value. Entries after “also recorded” stand apart in the source; their conditions may differ.

What was measured:
StOASS-B [1] = target: T1, StOASS-B (Salmonella typhimurium, UniProt P29848); parameters: method as in PMID 28821763; details: low affinity active site binder; read-out: Kd for OASS-B; cited from earlier work
T1 construct: made in house; host or cells: E. coli
T1 sequence (P29848 1-303): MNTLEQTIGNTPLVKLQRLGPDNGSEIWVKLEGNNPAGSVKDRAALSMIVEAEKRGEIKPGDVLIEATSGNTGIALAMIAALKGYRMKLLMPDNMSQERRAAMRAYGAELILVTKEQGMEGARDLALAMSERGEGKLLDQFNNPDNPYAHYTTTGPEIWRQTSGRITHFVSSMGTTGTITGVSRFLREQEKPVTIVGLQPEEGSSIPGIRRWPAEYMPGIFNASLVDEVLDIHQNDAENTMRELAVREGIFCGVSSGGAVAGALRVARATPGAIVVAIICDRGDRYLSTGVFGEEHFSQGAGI

[2] = Solubility limit in the buffer used for activity assays; type: physicochemical; details: aqueous buffer
Description: It is possible to conclude that expansion of the series towards the para position of the phenyl ring, unless carried out with small groups, is detrimental for the activity of the compounds. […] Even though the carboxylic acid group is essential for the binding to OASS[13] ^, [27] ^, [28], its scarce diffusion across biological membranes is a well-known issue[32] ^, [33]. Therefore, to preserve the key interactions with the target, we carried out the replacement of the carboxylic acid by several isosters (Scheme 2). […] This prompted us to further investigate the mechanism of inhibition of these molecules, since the residual activity at saturating concentrations is significant (about 40 − 50%, Figure 3, panel A). […] This hampers the accurate determination of the inhibition mechanism due to limitations to the range of inhibitor concentration that can be explored. However, since partial inhibition is a typical feature of allosteric inhibitors, we used a method developed by our group[24] to assess if compound 25 is able to displace a low affinity active site binder, 1-ethylcyclopropane-1,2-dicarboxylic acid, that forms a highly fluorescent complex with OASS. […] This is a strong indication that compound 25 is not able to compete for binding to the active site with 1-ethylcyclopropane-1,2-dicarboxylic acid. […]

[3] = test system: Escherichia coli ATCC25922; test: Minimal inhibitory concentration (CLSI) in medium with limiting cysteine; type: cell-based; details: E. coli ATCC25922, medium with limiting cysteine; data not shown
Procedure: Minimal inhibitory concentration assays were performed according to the CLSI guidelines (Clinical and Laboratory Standards Institute; Performance Standards for Antimicrobial Susceptibility Testing; Twenty-Fourth Informational Supplement; CLSI document M100-S24, CLSI; 2014.). The compounds were dissolved in DMSO to obtain a stock solution 100-fold more concentrated than the desired higher concentration and then 10 serial dilutions were performed. One microliter of each dilution was transferred to the microtiter plate.
Escherichia coli ATCC25922 was grown until log phase on liquid Mueller–Hinton broth at 37 °C in a shaker at 225 rpm. Bacterial suspension was then centrifuged at 2500 rpm for 15 min and diluted with phosphate buffer to obtain a solution with a turbidity of about 0.5 McFarland. Bacterial suspension was further diluted (1:100) with fresh LB 20%. Fifty microliters of the bacterial suspension containing 10^6 CFU/mL were inoculated into each well, to obtain a final concentration of 5 × 10^5 CFU/mL. Each plate contained growth control wells and sterility check wells.
We investigated the ability of the new set of compounds to interfere with bacterial growth.

StOASS-A = target: T2, StOASS-A (Salmonella typhimurium, UniProt P0A1E3); test: Steady-state enzyme activity assay, discontinuous ninhydrin cysteine determination; type: biochemical, Salmonella enterica serovar Typhimurium; details: value in brackets in IC50 column
T2 construct: made in house; host or cells: E. coli
Procedure: (§1) StOASS-A and StOASS-B, expressed in E. coli, were purified by metal affinity chromatography as described previously. Proteins were more that 95% pure based on SDS-PAGE analysis (data not shown).
(§2) Enzyme activity under steady-state conditions was measured by a discontinuous method as described previously. Briefly, the reaction was carried out in 100 mM HEPES pH 7.0 in the presence of 6 nM OASS, 60 nM BSA to prevent enzyme adhesion to tube wall, 1 mM OAS (equal to the K m value of this subsrate), 0.6 mM Na2S (a saturating concentration), 1% DMSO and variable concentrations of inhibitor. Reaction was stopped at time intervals by the addition of acetic acid and concentration of cysteine was determined by a modification of the ninhydrin assay. The fractional velocity as a function of inhibitor concentration was determined and IC50 was calculated by the following equation: vi/v0=1/1+(I/IC50) where, v 0 is the reaction velocity in the absence of inhibitor and v i is reaction velocity in the presence of inhibitor at concentration [I].
(§3) For a competitive inhibitor against OAS the IC50 measured under these conditions is about 2⋅K d.

StOASS-B [4] = target: T1, StOASS-B; test: as above; type: biochemical; details: value in brackets in IC50 column
Procedure: as §1, §2, §3

OASS-B = target: T3, OASS-B (Salmonella typhimurium, UniProt P29848); test: Fluorescence competitive binding assay (displacement of 1-ethylcyclopropane-1,2-dicarboxylic acid); details: 200 µM 1-ECP-1,2-DCA, 190-200 µM compound, 100 mM Hepes, 1% DMSO, pH 7, 20 °C
T3 construct: made in house; host or cells: E. coli
T3 sequence (P29848 1-303): T1 sequence (P29848 1-303)
Procedure: Ligand affinity was measured by direct fluorimetric titrations, monitoring the fluorescence emission spectrum of cofactor PLP upon excitation at 412 nm. 0.1–1 µM OASS was titrated by increasing concentrations of ligand in 100 mM HEPES pH 7.0, 1% DMSO, at 20 °C. The dependence of fluorescence emission intensity on the concentration of compound was fitted to a binding isotherm: I=I0+ΔI·[ligand]/Kd+[ligand] where, I is the fluorescence emission intensity at a given ligand concentration, I 0 is the fluorescence emission intensity in the absence of ligand, ΔI is the amplitude and K d is the dissociation constant. When the K d was lower than the concentration of the protein used in the assay, the dependence of the fluoresecnce emission intensity on ligand concentration was fitted to a quadratic equation that describes tight binding. The fluorescence competitive binding assay, described elsewhere, was used to evaluate whether compounds bind at the active site of the enzyme or to an allosteric site. […] Binding of a higher affinity compound to the active site displaces 1-ethylcyclopropane-1,2-dicarboxylic acid and leads to a decrease in the fluorescence emission intensity.
Figure 3. […] Fluorescence emission spectra upon excitation at 412 nm were collected in the absence and presence of 200 µM 1-ethylcyclopropane-1,2-dicarboxylic acid (1-ECP-1,2-DCA). […]

T2 sequence (P0A1E3 whole entry): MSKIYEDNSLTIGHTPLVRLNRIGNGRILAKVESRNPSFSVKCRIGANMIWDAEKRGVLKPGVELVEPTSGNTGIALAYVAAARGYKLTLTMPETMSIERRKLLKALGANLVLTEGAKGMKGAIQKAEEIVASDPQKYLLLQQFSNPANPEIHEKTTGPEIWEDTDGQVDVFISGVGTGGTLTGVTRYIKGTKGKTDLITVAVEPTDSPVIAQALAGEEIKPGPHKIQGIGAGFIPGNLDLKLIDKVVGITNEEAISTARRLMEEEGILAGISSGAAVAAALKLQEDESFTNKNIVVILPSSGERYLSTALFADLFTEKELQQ

| Compound | Kd (StOASS-B [1]) [µM] | solubility [2] [µM] | Interference with bacterial growth (MIC) [3] | OASS-A percent inhibition measured at saturation of inhibitor or at the highest inhibitor concentration allowed by solubility (StOASS-A) [%] | OASS-B percent inhibition measured at saturation of inhibitor or at the highest inhibitor concentration allowed by solubility (StOASS-B [4]) [%] | Displacement of 1-ethylcyclopropane-1,2-dicarboxylic acid from OASS-B (OASS-B) |
| --- | --- | --- | --- | --- | --- | --- |
| CCC1(C(=O)O)CC1C(=O)O (stereo not drawn) [1-ethylcyclopropane-1,2-dicarboxylic acid] | 170 |  |  |  |  |  |
| Cc1ccc(C[C@]2(NS(C)(=O)=O)C[C@H]2c2ccccc2)cc1 [Compound 24, (1R,2S)-1-N-(1-(4-methylbenzyl)-2-phenylcyclopropyl)methanesulfonamide] |  | ~250 (≈ 78.9 µg/mL) | none of the synthesised compounds was able to interfere significantly with bacterial growth | 45 | 50 |  |
| Cc1ccc(C[C@]2(NS(=O)(=O)c3ccc(C)cc3)C[C@H]2c2ccccc2)cc1 [Compound 25, (1R,2S)-4-methyl-N-(1-(4-methylbenzyl)-2-phenylcyclopropyl)benzenesulfonamide] |  | ~50 (≈ 19.6 µg/mL) |  | 39 | 35 | unable to displace the compound up to an equimolar concentration of about 200 μM; also recorded: does not change the emission spectrum |
